The numbers were not newly measured in patent publication US20100113603A1, “COMBINATION THERAPIES FOR THE TREATMENT OF OBESITY” (priority 2008, published 2010), which cites them from elsewhere.

For the data set the following is noted: literature studies of each medication.
Regarding `CCCCCCCCCCC[C@@H](C[C@@H]1OC(=O)[C@H]1CCCCCC)OC(=O)[C@H](CC(C)C)NC=O` [orlistat], the “weight loss of body weight for drug compared with placebo” value (from here on “weight loss … compared with placebo”) was “about 5%”. In the case of `CC(C)CC(N(C)C)C1(c2ccc(Cl)cc2)CCC1` (stereo not shown) [sibutramine], the “weight loss … compared with placebo” value is given as “about 5%”. For the compound `CC(C)(N)Cc1ccccc1` [phentermine], the “weight loss … compared with placebo” value was “about 5%”. As for `CCN[C@@H](C)Cc1cccc(C(F)(F)F)c1` [dexfenfluramine], the “weight loss … compared with placebo” value was “about 5%”.
